Measured values as given in patent publication EP1247803A2, “Indolinone compounds suitable for modulation of protein kinases” (Sugen, Inc., priority 1996, dated 1998).

Key:
[1] = target: T1, FLK-1 receptor (Mus musculus, UniProt P35918); experiment: FLK-1 ELISA (kinase activity of the FLK-1 receptor in FLK-1/NIH3T3 cells, VEGF stimulated); format: cell-based
T1 construct: expressed in transfected cells; host or cells: NIH3T3 C7#3
Summary of the method: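 FLK-1-expressing NIH3T3 C7#3 cells, starved overnight in 0.1% FBS medium, were treated with compounds at a 1:200 final dilution (0.5% DMSO) for 2 h at 37 °C, with VEGF stimulation. FLK-1 kinase activity was read by ELISA on anti-rabbit IgG plates using affinity-purified anti-FLK-1 antiserum.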

[2] = test system: MET; experiment: MET biochemical kinase assay; parameters: species or system human; concentration or dose not given beside the values
Summary of the method: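 Plates coated with anti-rabbit Fc bind a rabbit anti-MET antibody that captures receptor from cell lysates; unbound protein is washed off before compound and ATP-containing kinase buffer go in.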

T1 sequence (P35918 20-1345): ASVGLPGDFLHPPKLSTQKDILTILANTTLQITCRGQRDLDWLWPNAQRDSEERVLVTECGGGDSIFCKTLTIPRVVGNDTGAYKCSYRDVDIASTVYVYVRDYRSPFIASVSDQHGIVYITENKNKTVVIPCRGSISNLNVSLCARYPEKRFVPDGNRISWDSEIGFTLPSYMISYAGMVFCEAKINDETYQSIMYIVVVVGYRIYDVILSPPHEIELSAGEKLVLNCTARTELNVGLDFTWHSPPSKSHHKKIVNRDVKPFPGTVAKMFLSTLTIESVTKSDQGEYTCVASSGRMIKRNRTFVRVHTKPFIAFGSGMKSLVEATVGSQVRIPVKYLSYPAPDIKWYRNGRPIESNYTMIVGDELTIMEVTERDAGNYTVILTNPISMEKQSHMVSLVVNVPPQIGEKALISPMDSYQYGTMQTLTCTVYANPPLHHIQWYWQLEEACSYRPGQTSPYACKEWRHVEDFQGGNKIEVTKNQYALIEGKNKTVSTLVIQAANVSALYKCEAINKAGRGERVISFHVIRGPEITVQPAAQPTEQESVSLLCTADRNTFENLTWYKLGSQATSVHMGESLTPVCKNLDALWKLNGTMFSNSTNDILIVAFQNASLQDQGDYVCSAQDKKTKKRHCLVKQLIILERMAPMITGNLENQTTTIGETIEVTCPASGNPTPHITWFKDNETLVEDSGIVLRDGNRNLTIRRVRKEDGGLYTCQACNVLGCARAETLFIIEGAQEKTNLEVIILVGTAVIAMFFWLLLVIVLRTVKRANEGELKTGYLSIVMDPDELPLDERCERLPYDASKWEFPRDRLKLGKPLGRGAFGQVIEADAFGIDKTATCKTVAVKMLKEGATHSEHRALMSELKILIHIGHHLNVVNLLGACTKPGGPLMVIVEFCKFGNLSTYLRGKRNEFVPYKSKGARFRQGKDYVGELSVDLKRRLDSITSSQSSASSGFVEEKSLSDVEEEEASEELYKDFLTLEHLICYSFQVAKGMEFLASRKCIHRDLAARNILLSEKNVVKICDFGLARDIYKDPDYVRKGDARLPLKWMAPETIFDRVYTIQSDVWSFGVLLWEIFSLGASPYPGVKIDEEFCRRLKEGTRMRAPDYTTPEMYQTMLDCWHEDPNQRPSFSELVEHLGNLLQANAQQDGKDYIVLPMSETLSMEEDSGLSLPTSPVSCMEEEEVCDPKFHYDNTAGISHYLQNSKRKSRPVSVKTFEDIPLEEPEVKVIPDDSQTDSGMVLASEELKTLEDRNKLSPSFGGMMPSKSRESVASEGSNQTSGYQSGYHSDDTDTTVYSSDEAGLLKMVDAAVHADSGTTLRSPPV

| Compound | Fik Kinase %Inhibition [1] [%] | Met Kinase % Inhibition [2] [%] |
| --- | --- | --- |
| COc1cc(OC)c(C=C2C(=O)Nc3ccc(CCCl)cc32)c(OC)c1 [10719/G06] | 23.2 | -18.1 |
| CCc1c(C)[nH]c(C=C2C(=O)Nc3ccc(CCCl)cc32)c1C [10719/G05] | 18.0 | 15.9 |
| O=C1Nc2c(Br)cc(Br)cc2C1=Cc1ccccc1O [10720/A05] | 8.0 | 43.4 |
| O=C1Nc2ccc(CCCl)cc2C1=Cc1ccc(O)cc1 [10719/G07] | 20.1 | 24.0 |
| CNS(=O)(=O)c1ccc2c(c1)C(=Cc1ccc(O)cc1)C(=O)N2 [10719/D07] | -123.5 | 41.5 |
| COc1ccc(C=C2C(=O)Nc3ccc(S(=O)(=O)N4CCOCC4)cc32)c(OC)c1 [10719/F04] | 26.6 | 3.3 |
| Cc1ccc(C=C2C(=O)Nc3ccc(I)cc32)s1 [10717/B07] | -18.3 | 90.0 |
| Cc1cc(O)cc(O)c1C=C1C(=O)Nc2ccc(Br)c(C)c21 [10720/C08] | 10.9 | 65.6 |
| O=C1Nc2ccc(I)cc2C1=Cc1ccc(Br)cc1 [10717/B08] | -0.9 | 88.8 |
| O=C1Nc2ccc(S(=O)(=O)N3CCOCC3)cc2C1=Cc1ccc(F)cc1C(F)(F)F [10719/F11] | 11.6 | 8.7 |
| CNS(=O)(=O)c1ccc2c(c1)C(=Cc1ccc(N(C)C)cc1)C(=O)N2 [10719/D08] | 8.2 | 45.2 |
| O=C1Nc2c(Br)cc(Br)cc2C1=Cc1ccccc1 [10720/A06] | 5.6 | 63.6 |
| O=C1Nc2ccc(I)cc2C1=Cc1ccc[nH]1 [10717/B09] | -40.7 | 88.8 |
| O=C1Nc2ccc(I)cc2C1=Cc1c(F)cc(F)cc1F [10720/B02] | 6.5 | 38.8 |
| Cc1c(Br)ccc2c1C(=Cc1ccccc1)C(=O)N2 [10720/C06] | 12.2 | 36.7 |
| CSc1ccc(C=C2C(=O)Nc3ccc(Br)c(C)c32)s1 [10720/C07] | 20.7 | 26.7 |
| CNS(=O)(=O)c1ccc2c(c1)C(=Cc1ccc(O)c(O)c1)C(=O)N2 [10719/D03] | 4.8 | 93.2 |
| CN(C)c1ccc(C=C2C(=O)Nc3ccc(S(=O)(=O)Nc4ccc(C(F)(F)F)cc4)cc32)cc1 [10719/E08] | 21.8 | 80.0 |
| COc1cc(OC)c(C=C2C(=O)Nc3ccc(S(=O)(=O)N4CCOCC4)cc32)c(OC)c1 [10719/F06] | 13.5 | -22.0 |
| Cc1cc(O)cc(O)c1C=C1C(=O)Nc2ccc(I)cc21 [10720/B08] | 3.6 | 27.7 |
| O=C1Nc2ccc(I)cc2C1=Cc1ncc[nH]1 [10720/B11] | -20.3 | 42.1 |

| Compound | Fik Kinase %Inhibition [1] [%] | Met Kinase % Inhibition [2] [%] |
| --- | --- | --- |
| Cc1c(Br)ccc2c1C(=Cc1cccs1)C(=O)N2 [10717/C03] | -7.7 | 25.3 |
| CCOc1ccc(C=C2C(=O)Nc3ccc(S(=O)(=O)NC)cc32)cc1OC [10719/D02] | 9.7 | 27.5 |
| O=C1Nc2ccc(CCCl)cc2C1=Cc1ccc(F)cc1Cl [10719/G09] | 18.1 | 1.3 |
| CNS(=O)(=O)c1ccc2c(c1)C(=Cc1ccc(O)cc1OC)C(=O)N2 [10720/D03] | 17.0 | 61.5 |
| CCOc1cc(C=C2C(=O)Nc3ccc(I)cc32)ccc1O [10720/B09] | 10.1 | 57.4 |
| O=C1Nc2ccc(S(=O)(=O)N3CCOCC3)cc2C1=Cc1cccc([N+](=O)[O-])c1 [10719/F10] | 10.4 | 30.8 |
| COc1cc(O)ccc1C=C1C(=O)Nc2ccc(I)cc21 [10720/B03] | 6.4 | 53.3 |
| O=C1Nc2ccc(CCCl)cc2C1=Cc1ccc(O)c(O)c1 [10719/G03] | -25.8 | 87.6 |
| CNS(=O)(=O)c1ccc2c(c1)C(=Cc1ccc(F)cc1Cl)C(=O)N2 [10719/D09] | 7.8 | 13.0 |
| O=C1Nc2ccc(I)cc2C1=Cc1ccccc1 [10720/B06] | 7.3 | 55.1 |
| CSc1ccc(C=C2C(=O)Nc3c(Br)cc(Br)cc32)s1 [10720/A07] | 6.6 | 57.2 |
| COc1ccc(C=C2C(=O)Nc3ccc(CCCl)cc32)c(OC)c1 [10719/G04] | 11.5 | -8.2 |
| CCOc1ccc(C=C2C(=O)Nc3ccc(CCCl)cc32)cc1OC [10719/G02] | 27.3 | -2.4 |
| O=C1Nc2ccc(S(=O)(=O)Nc3ccc(C(F)(F)F)cc3)cc2C1=Cc1ccc(O)c(O)c1 [10719/E03] | 17.1 | 87.2 |
| O=C1Nc2ccc(S(=O)(=O)N3CCOCC3)cc2C1=Cc1ccc(O)c(O)c1 [10719/F03] | 11.2 | 89.5 |
| O=C1Nc2ccc(S(=O)(=O)N3CCOCC3)cc2C1=Cc1ccc(F)cc1Cl [10719/F09] | -6.5 | 19.2 |
| COc1ccc(O)c(C=C2C(=O)Nc3ccc(I)cc32)c1 [10720/B10] | -5.5 | 45.2 |
| CN(C)c1ccc(C=C2C(=O)Nc3ccc(CCCl)cc32)cc1 [10719/G08] | 3.2 | 39.4 |
| CCc1c(C)[nH]c(C=C2C(=O)Nc3ccc(S(=O)(=O)NC)cc32)c1C [10719/D05] | 16.3 | 71.8 |
| O=C1Nc2ccc(S(=O)(=O)N3CCOCC3)cc2C1=Cc1ccc(O)cc1 [10719/F07] | 18.7 | 36.7 |
| COc1cccc(O)c1C=C1C(=O)Nc2ccc(I)cc21 [10717/B10] | -2.3 | 56.1 |

| Compound | Fik Kinase %Inhibition [1] [%] | Met Kinase % Inhibition [2] [%] |
| --- | --- | --- |
| CNS(=O)(=O)c1ccc2c(c1)C(=Cc1cccc([N+](=O)[O-])c1)C(=O)N2 [10719/D10] | 8.3 | 22.3 |
| O=C1Nc2ccc(S(=O)(=O)Nc3ccc(C(F)(F)F)cc3)cc2C1=Cc1ccc(F)cc1C(F)(F)F [10719/E11] | 26.3 | 28.5 |
| COc1ccc(O)c(C=C2C(=O)Nc3ccc(Br)c(C)c32)c1 [10720/C10] | -21.1 | 62.6 |
| CCOc1ccc(C=C2C(=O)Nc3ccc(S(=O)(=O)N4CCOCC4)cc32)cc1OC [10719/F02] | 28.6 | 28.1 |
| O=C1Nc2ccc(CCCl)cc2C1=Cc1ccc(F)cc1C(F)(F)F [10719/G11] | 6.9 | 24.0 |
| COc1ccc(C=C2C(=O)Nc3c(Br)cc(Br)cc32)cc1OC [10720/A04] | 12.3 | 62.3 |
| COc1cc(OC)c(C=C2C(=O)Nc3ccc(S(=O)(=O)Nc4ccc(C(F)(F)F)cc4)cc32)c(OC)c1 [10719/E06] | 17.1 | -4.5 |
| CSc1ccc(C=C2C(=O)Nc3ccc(I)cc32)s1 [10720/B07] | 12.0 | 61.5 |
| CCc1c(C)[nH]c(C=C2C(=O)Nc3ccc(S(=O)(=O)N4CCOCC4)cc32)c1C [10719/F05] | 20.7 | 63.1 |
| Cc1c(Br)ccc2c1C(=Cc1ncc[nH]1)C(=O)N2 [10720/C11] | 52.5 | 30.0 |
| O=C1Nc2c(Br)cc(Br)cc2C1=Cc1ncc[nH]1 [10720/A11] | -0.6 | 58.7 |
| CCc1c(C)[nH]c(C=C2C(=O)Nc3ccc(S(=O)(=O)Nc4ccc(C(F)(F)F)cc4)cc32)c1C [10719/E05] | 21.5 | 39.0 |
| CCOc1cc(C=C2C(=O)Nc3c(Br)cc(Br)cc32)ccc1O [10720/A09] | 8.1 | 75.4 |
| O=C1Nc2ccc(CCCl)cc2C1=Cc1cccc([N+](=O)[O-])c1 [10719/G10] | 9.7 | 35.5 |
| Cc1[nH]c(C=C2C(=O)Nc3ccc(I)cc32)c(Br)c1Br [10717/B11] | 11.4 | 91.0 |
| O=C1Nc2ccc(S(=O)(=O)Nc3ccc(C(F)(F)F)cc3)cc2C1=Cc1ccc(O)cc1 [10719/E07] | 26.7 | 55.5 |
| O=C1Nc2ccc(S(=O)(=O)Nc3ccc(C(F)(F)F)cc3)cc2C1=Cc1cccc([N+](=O)[O-])c1 [10719/E10] | 17.6 | 40.2 |
| CCOc1ccc(C=C2C(=O)Nc3ccc(S(=O)(=O)Nc4ccc(C(F)(F)F)cc4)cc32)cc1OC [10719/E02] | 26.1 | 35.7 |
| Cc1c(Br)ccc2c1C(=Cc1ccccc1O)C(=O)N2 [10720/C05] | -36.1 | 72.5 |
| Cc1c(Br)ccc2c1C(=Cc1ccc(F)cc1C(F)(F)F)C(=O)N2 [10719/C11] | 9.9 | -5.1 |
